Measured values from patent publication US20080255193A1, “Pharmaceutical Composition” (priority 2005, published 2008).
≈ marks a conversion by molar mass, not a printed value.

Assay: Aqueous solubility of talnetant
Assay type: physicochemical
Conditions: aqueous medium
Experimental: Talnetant has low aqueous solubility (approximately 0.03 mg/ml at pH 1 and 0.001 mg/ml, at pH 7.0). Typically drugs with low aqueous solubility are absorbed slowly across the walls of the gastrointestinal tract (GIT) due to poor dissolution of the solid in the GIT leading to a small diffusive driving force.

solubility (aqueous buffer, pH 7.0): ~1 µg/mL (≈ 2.61 µM)
solubility (pH 1, simulated gastric fluid): ~30 µg/mL (≈ 78.4 µM)
SMILES: CC[C@H](NC(=O)c1c(O)c(-c2ccccc2)nc2ccccc12)c1ccccc1 [Talnetant, (S)-(−)-N-(α-ethylbenzyl)-3-hydroxy-2-phenylquinoline-4-carboxamide]
